The test system of assay [1] is IFNα Kit225 Reporter (Kit225 T cells with a stably-integrated STAT-dependent luciferase reporter, stimulated with IFNα). As to the kind of experiment: Kit225 T Cell Assay, IFNα-stimulated STAT-dependent luciferase reporter. In kind it is cell-based. The settings on record: 200 U/mL human recombinant IFNα, 5-6 hours, luciferase expression. As for the experimental part:
(§1) Kit225 T cells with a stably-integrated STAT-dependent luciferase reporter were plated in RPMI (Gibco) containing 10% heat-inactivated FBS (Gibco) and 100 U/mL PenStrep (Gibco). The cells were then stimulated with either 20 ng/mL human recombinant IL-23 or 200 U/mL human recombinant IFNα (PBL InterferonSource) for 5-6 hours. Luciferase expression was measured using the STEADY-GLO® Luciferase Assay System (Promega) according to the manufacturer's instructions. Inhibition data were calculated by comparison to no inhibitor control wells for 0% inhibition and non-stimulated control wells for 100% inhibition. Dose response curves were generated to determine the concentration required to inhibit 50% of cellular response (IC50) as derived by non-linear regression analysis.

Assay [2] is described as follows: Kit225 T Cell Assay, IL-23-stimulated STAT-dependent luciferase reporter. In kind it is cell-based. The settings on record: Kit225 T cells, 20 ng/mL human recombinant IL-23, 5-6 hours, luciferase expression. As for the experimental part: as §1
(A reporter such as luciferase makes a cellular process visible.)

By IC50 is commonly meant the concentration at which inhibition is half-maximal. For `CC(C)(C)Oc1nc(Nc2cc(NC3CCOCC3)nn3c(C#N)cnc23)ccc1C(=O)N1CCCC1` [Example 24, 8-{[6-(tert-butoxy)-5-(pyrrolidine-1-carbonyl)pyridin-2-yl]amino}-6-[(oxan-4-yl)amino]imidazo[1,2-b]pyridazine-3-carbonitrile], the IC50 in assay [1] turned out to be 600 nM; in assay [2], 700 nM.
As to `CC(C)(O)C(=O)Nc1cccc(Nc2cc(NC3CCOCC3)nn3c(C#N)cnc23)n1` [Example 25, N-[6-({3-cyano-6-[(oxan-4-yl)amino]imidazo[1,2-b]pyridazin-8-yl}amino)pyridin-2-yl]-2-hydroxy-2-methylpropanamide], the half-maximal inhibitory concentration (IC50) in assay [1] is 450 nM; in assay [2], 340 nM.
The like results for `CC(C)(C)C(=O)Nc1cccc(Nc2cc(NCC3CC3)nn3c(C#N)cnc23)n1` [Example 26, N-[6-({3-cyano-6-[(cyclopropylmethyl)amino]imidazo[1,2-b]pyridazin-8-yl}amino)pyridin-2-yl]-2,2-dimethylpropanamide] were, in that order, 200 nM and 900 nM.
On the same counts, the results for `N#Cc1cnc2c(Nc3cccc(NC(=O)C4CC4)n3)cc(NCC3CC3)nn12` [Example 27, N-[6-({3-cyano-6-[(cyclopropylmethyl)amino]imidazo[1,2-b]pyridazin-8-yl}amino)pyridin-2-yl]cyclopropanecarboxamide] are 160 nM and 310 nM.
With `CC(C)(C)CNc1cc(Nc2cccc(NC(=O)C3CC3)n2)c2ncc(C#N)n2n1` [Example 28, N-[6-({3-cyano-6-[(2,2-dimethylpropyl)amino]imidazo[1,2-b]pyridazin-8-yl}amino)pyridin-2-yl]cyclopropanecarboxamide], the values for the half-inhibitory concentration (IC50) in assay [1] and in assay [2] were 460 nM and 260 nM, respectively.
On the same counts, the results for `CCNc1nc(Nc2cc(N[C@H]3CCCC[C@@H]3O)nn3c(C#N)cnc23)ccc1C(=O)N1CCCC1` [Example 29, 8-{[6-(ethylamino)-5-(pyrrolidine-1-carbonyl)pyridin-2-yl]amino}-6-{[(1S,2S)-2-hydroxycyclohexyl]amino}imidazo[1,2-b]pyridazine-3-carbonitrile] are 380 nM and 140 nM.
On the same counts, the results for `CN(C)c1nc(Nc2cc(N[C@@H]3CCCC[C@H]3O)nn3c(C#N)cnc23)ccc1C(=O)N1CCN(c2ccccc2F)CC1` [Example 30, 8-{[6-(dimethylamino)-5-[4-(2-fluorophenyl)piperazine-1-carbonyl]pyridin-2-yl]amino}-6-{[(1R,2R)-2-hydroxycyclohexyl]amino}imidazo[1,2-b]pyridazine-3-carbonitrile] are 730 nM and 390 nM.
On the same counts, the results for `CN(CCc1ccccn1)C(=O)c1ccc(Nc2cc(N[C@@H]3CCCC[C@H]3O)nn3c(C#N)cnc23)nc1N(C)C` [Example 31, 6-[(3-cyano-6-{[(1R,2R)-2-hydroxycyclohexyl]amino}imidazo[1,2-b]pyridazin-8-yl)amino]-2-(dimethylamino)-N-methyl-N-[2-(pyridin-2-yl)ethyl]pyridine-3-carboxamide] are 870 nM and 650 nM.
`COCCNC(=O)c1ccc(Nc2cc(N[C@@H]3CCCC[C@H]3O)nn3c(C#N)cnc23)nc1N(C)C` [Example 32, 6-[(3-cyano-6-{[(1R,2R)-2-hydroxycyclohexyl]amino}imidazo[1,2-b]pyridazin-8-yl)amino]-2-(dimethylamino)-N-(2-methoxyethyl)pyridine-3-carboxamide]: the 50% inhibitory concentration (IC50) in assay [1] was 760 nM; in assay [2], 670 nM.
For the compound `N#Cc1cnc2c(Nc3ccc(C(=O)N4CCCC4C(F)(F)F)c(OCC(F)F)n3)cc(N[C@@H]3CCCC[C@H]3O)nn12` (stereo partly drawn) [Example 33, 8-{[6-(2,2-difluoroethoxy)-5-[2-(trifluoromethyl)pyrrolidine-1-carbonyl]pyridin-2-yl]amino}-6-{[(1R,2R)-2-hydroxycyclohexyl]amino}imidazo[1,2-b]pyridazine-3-carbonitrile], the IC50 in assay [1] was 850 nM; in assay [2], 670 nM.
The like results for `N#Cc1cnc2c(Nc3ccc(C(=O)N4C[C@H]5CC[C@@H]4C5)c(OCC(F)F)n3)cc(N[C@@H]3CCCC[C@H]3O)nn12` [Example 34, 8-({5-[(1R,4S)-2-azabicyclo[2.2.1]heptane-2-carbonyl]-6-(2,2-difluoroethoxy)pyridin-2-yl}amino)-6-{[(1R,2R)-2-hydroxycyclohexyl]amino}imidazo[1,2-b]pyridazine-3-carbonitrile] were, in that order, 580 nM and 430 nM.
The like results for `N#Cc1cnc2c(Nc3ccc(C(=O)NCC4CCCO4)c(OCC(F)F)n3)cc(N[C@@H]3CCCC[C@H]3O)nn12` (stereo partly drawn) [Example 35, 6-[(3-cyano-6-{[(1R,2R)-2-hydroxycyclohexyl]amino}imidazo[1,2-b]pyridazin-8-yl)amino]-2-(2,2-difluoroethoxy)-N-[(oxolan-2-yl)methyl]pyridine-3-carboxamide] were, in that order, 610 nM and 630 nM.
On the same counts, the results for `C[C@@H]1COC[C@H](C)N1C(=O)c1ccc(Nc2cc(N[C@H]3CCCC[C@@H]3O)nn3c(C#N)cnc23)nc1OCC(F)F` [Example 36, 8-{[6-(2,2-difluoroethoxy)-5-[(3R,5S)-3,5-dimethylmorpholine-4-carbonyl]pyridin-2-yl]amino}-6-{[(1S,2S)-2-hydroxycyclohexyl]amino}imidazo[1,2-b]pyridazine-3-carbonitrile] are 760 nM and 500 nM.
With `CC(=O)NCc1ccc(-c2cccc(Nc3cc(N[C@@H]4CCCC[C@H]4O)nn4c(C#N)cnc34)n2)cc1` [Example 37, N-[(4-{6-[(3-cyano-6-{[(1R,2R)-2-hydroxycyclohexyl]amino}imidazo[1,2-b]pyridazin-8-yl)amino]pyridin-2-yl}phenyl)methyl]acetamide], the IC50 stood at 550 nM in assay [1] and 470 nM in assay [2].
`CS(=O)(=O)NCc1ccc(-c2cccc(Nc3cc(N[C@@H]4CCCC[C@H]4O)nn4c(C#N)cnc34)n2)cc1` [Example 38, N-[(4-{6-[(3-cyano-6-{[(1R,2R)-2-hydroxycyclohexyl]amino}imidazo[1,2-b]pyridazin-8-yl)amino]pyridin-2-yl}phenyl)methyl]methanesulfonamide]: the IC50 in assay [1] was 760 nM; in assay [2], 890 nM.
In the case of `N#Cc1cnc2c(Nc3cccc(N4CCN(S(=O)(=O)N5CCOCC5)CC4)n3)cc(N[C@@H]3CCCC[C@H]3O)nn12` [Example 39, 6-{[(1R,2R)-2-hydroxycyclohexyl]amino}-8-({6-[4-(morpholine-4-sulfonyl)piperazin-1-yl]pyridin-2-yl}amino)imidazo[1,2-b]pyridazine-3-carbonitrile], the IC50 was 790 nM in assay [1] and 560 nM in assay [2].
As for `CC(=O)N1[C@H](C)CN(c2cccc(Nc3cc(NC45CC6CC(CC(O)(C6)C4)C5)nn4c(C#N)cnc34)n2)C[C@@H]1C` [Example 40, 8-({6-[(3R,5S)-4-acetyl-3,5-dimethylpiperazin-1-yl]pyridin-2-yl}amino)-6-[(3-hydroxyadamantan-1-yl)amino]imidazo[1,2-b]pyridazine-3-carbonitrile], the concentration for half-maximal inhibition (IC50) in assay [1] is 390 nM; in assay [2], 260 nM.
With `C[C@@H](NC(=O)c1cccc(Nc2cc(NC34CC5CC(CC(O)(C5)C3)C4)nn3c(C#N)cnc23)n1)C(F)(F)F` [Example 41, 6-({3-cyano-6-[(3-hydroxyadamantan-1-yl)amino]imidazo[1,2-b]pyridazin-8-yl}amino)-N-[(2R)-1,1,1-trifluoropropan-2-yl]pyridine-2-carboxamide], the IC50 was 320 nM in assay [1] and 110 nM in assay [2].
As to `CC(C)(CC(N)=O)NC(=O)c1cccc(Nc2cc(NC34CC5CC(CC(O)(C5)C3)C4)nn3c(C#N)cnc23)n1` [Example 42, 3-{[6-({3-cyano-6-[(3-hydroxyadamantan-1-yl)amino]imidazo[1,2-b]pyridazin-8-yl}amino)pyridin-2-yl]formamido}-3-methylbutanamide], the IC50 in assay [1] was determined as 640 nM; in assay [2], 710 nM.
For the compound `CC(C)Oc1nc(Nc2cc(NC3CCOCC3)nn3c(C#N)cnc23)ccc1C(=O)N1CCCC1` [Example 43, 6-[(oxan-4-yl)amino]-8-{[6-(propan-2-yloxy)-5-(pyrrolidine-1-carbonyl)pyridin-2-yl]amino}imidazo[1,2-b]pyridazine-3-carbonitrile], the IC50 amounted to 450 nM in assay [1] and 160 nM in assay [2].
The like results for `CN(C(=O)c1ccc(Nc2cc(NC3CCOCC3)nn3c(C#N)cnc23)nc1OCC(F)F)C1COC1` [Example 44, 6-({3-cyano-6-[(oxan-4-yl)amino]imidazo[1,2-b]pyridazin-8-yl}amino)-2-(2,2-difluoroethoxy)-N-methyl-N-(oxetan-3-yl)pyridine-3-carboxamide] were, in that order, 860 nM and 240 nM.
On to `N#Cc1cnc2c(Nc3ccc(C(=O)NCC4CCCO4)c(OCC(F)F)n3)cc(NC3CCOCC3)nn12` (stereo not shown) [Example 45, 6-({3-cyano-6-[(oxan-4-yl)amino]imidazo[1,2-b]pyridazin-8-yl}amino)-2-(2,2-difluoroethoxy)-N-[(oxolan-2-yl)methyl]pyridine-3-carboxamide], for which the results for the IC50 in assay [1] and in assay [2] were 260 nM and 740 nM, respectively.
On the same counts, the results for `N#Cc1cnc2c(Nc3ccc(C(=O)N4CC[C@@H](C#N)C4)c(OCC(F)F)n3)cc(NC3CCOCC3)nn12` [Example 47, (3R)-1-[6-({3-cyano-6-[(oxan-4-yl)amino]imidazo[1,2-b]pyridazin-8-yl}amino)-2-(2,2-difluoroethoxy)pyridine-3-carbonyl]pyrrolidine-3-carbonitrile] are 160 nM and 340 nM.

The values above are taken from US12473290B2, “Imidazopyridazine compounds useful as modulators of IL-12, IL-23 and/or IFN alpha responses” (BRISTOL-MYERS SQUIBB COMPANY, priority 2019, dated 2025).
